From patent US11857604B2, “Nanovectors and uses” (NH THERAGUIX, priority 2017, dated 2024)

Assay: physisorption of active substance on nanoparticles: tangential filtration (3 kDa Vivaspin), subnatant analysed by UV-visible/fluorescence
Type: physicochemical
Details: for concentration up to which retention of the active substance is observed (minimum) / load content by weight: AGuIX® at 100 mM [Gd3+] = 100 g/l of nanoparticles
Protocol: During the various examples, the maximum drug load content on polysiloxane nanoparticles was determined, when said particles are present at a concentration corresponding to a concentration used during clinical trials for the nanoparticle in question. Increasing concentrations of active substances were thus brought into contact with the nanoparticles. Solutions are purified by tangential filtration. The molecules which have not be able to adsorb to the surface of the nanoparticles pass through the membrane and are found in the subnatant, where they can be detected by spectroscopic techniques such as UV/Visible absorption or else fluorescence spectroscopy (FIG. 2).
This solution is placed in a 3 kDa Vivaspin®, and a tangential filtration cycle is carried out in order to obtain a supernatant of 200 μl. The subnatant is analysed by UV-visible analysis. The supernatant is diluted 50-fold and is analysed by UV-visible analysis.
This solution is placed in a 3 kDa Vivaspin®, and a tangential filtration cycle is carried out so as to obtain a supernatant of 200 μl. The subnatant is analysed by UV-visible analysis and fluorometry after 20-fold dilution.
This solution is placed in a 3 kDa Vivaspin®, and a tangential filtration cycle is carried out so as to obtain a supernatant of 160 μl. The subnatant is analysed by UV-visible analysis. The cisplatin is detectable by UV/VIS absorption at a wavelength of 706 nm after reaction with ODPA. For the reaction with cisplatin, a solution of ODPA at 1.4 mg/ml and a phosphate buffer (pH 6.8) are prepared. The subnatant is diluted 5-fold. 140 μl of this solution are added to 200 μl of buffer and 100 μl of ODPA. The resulting solution is heated at 100° C. for 15 min. Once the reaction is finished and the temperature has returned to ambient temperature, 560 μl of DMF are added. The final solution is filtered and then analysed by UV-visible analysis.

Row | Molecule | concentration up to which retention of the active substance is observed (minimum) | load content by weight | limiting concentration up to which cisplatin adsorbs at the surface of the nanoparticles (AGuIX® 100 mM, absorption at 706 nm of ODPA-treated subnatants (FIG. 16)) | limiting concentration up to which the peptide adsorbs at the surface of the nanoparticles (AGuIX® 100 mM, absorption at 280 nm of subnatants (FIG. 12))
1 | COc1cccc2c1C(=O)c1c(O)c3c(c(O)c1C2=O)C[C@@](O)(C(=O)CO)C[C@@H]3O[C@H]1C[C@H](N)[C@H](O)[C@H](C)O1 [doxorubicin] | ≥ 112 µg/mL | greater than 1.12 mg/g of nanoparticles |  | 
2 | N.N.[Cl][Pt][Cl] [cisplatin] | ≥ 240 µg/mL | greater than 2.4 mg/g of nanoparticles | approximately 240 mg·L^−1 | 
3 | tyr3-octreotate [TATE peptide] | ≥ 2000 µg/mL | greater than 20 mg/g of nanoparticles |  | approximately 2 g·L^1
